Test results as given in patent publication US20210275596A1, “APPLICATION OF GENE PROFILE FOR CELLS ISOLATED USING FRESH-TRACER” (CELL2IN, INC., priority 2018, published 2021).

How the values were obtained:
Assay type in all cases: cell-based, human
hES-MSCs [1] = test: Chemotaxis to PDGF-AA; settings: for effect on chemoattraction to PDGF: naive hES-MSCs
Procedure: FIGS. 4A, 4B, 4C and 4D are graphs showing analyses of colony-forming unit fibroblasts (CFU-F; n=15), limiting dilution by replating primary CFU colonies (n=6), chemotaxis to stromal derived factor-1α (SDFα; 150 ng/mL, n=8), and chemotaxis to 10 ng/mL platelet-derived growth factor (PDGF)-AA in the absence or presence of STI571 (0.5 μg/mL), a PDGFR inhibitor (n=8).
At this time, for differentiation media, the cells were maintained and cultured in each of adipogenic induction medium (DMEM supplemented with 5% FBS, […], […], […] and 0.5 mM isobutylmethylxanthine), osteogenic induction medium (DMEM supplemented with 5% FBS, […], […], and 10 mM glycerophosphate), and chondrogenic induction medium (e.g., StemPro chondrogenesis, Invitrogen). FIG. 3 is a graph showing the results of qPCR performed to quantify lineage-specific genes in non-differentiated(Non) FR^High cells and FR^Low cells and differentiated(Diff) FR^High cells and FR^Low cells. Additionally, FR^High hES-MSCs had approximately 4.7- and 4.9-fold higher numbers of CFU-F than did FR^Mild and FR^Low cells, respectively (FIG. 4A).

hES-MSCs [2] = test: GSH depletion or supplementation: clonogenic and migration capacities
HeLa cells [3] = test: FR monitoring in cells loaded with FreSH-tracer; settings: for change of FR: HeLa cells equilibrated with 5 μM FreSH-tracer for 2 hours
Procedure: To utilize a FreSH-tracer for GSH monitoring in living cells, its cytotoxicity was evaluated. […] HeLa cells were equilibrated with treatment of 5 μM FreSH-tracer for 2 hours. […] The FR in the nucleus was about 1.5- to 2-fold higher than that of the cytoplasm.
The in vitro experiments described above established that H2O2 treatment diminishes only the FRGSH, while having little effect on the FRPSH. […] Thus, the FreSH-tracer can report the real-time dynamic changes of GSH concentration in live cells under oxidative stress.

HeLa cells [4] = test: Mitochondrial FR monitoring with MitoFreSH-tracer
Text: The mitochondrion is the major site of endogenous ROS generation during normal oxidative metabolism. Cytosolic GSH is transported to the mitochondria, preventing macromolecular damage and modulating ROS-induced signaling. To further analyze the FR heterogeneity in the cytoplasm, a mitochondria-targeting FreSH-tracer derivative, designated MitoFreSH-tracer was synthesized by attaching a triphenylphosphonium moiety to a FreSH-tracer.

Compound: CCCCS(=N)(=O)CCC(N)C(=O)O (centres unmarked) [BSO, buthionine sulfoximine]
- effect on chemoattraction to PDGF (hES-MSCs [1]): significant repression
- effect on enhanced clonogenic and migration capacities and related gene upregulation (hES-MSCs [2]; FR^High hES-MSCs): severely impaired

Compound: O=[N+]([O-])c1ccc(Cl)c([N+](=O)[O-])c1 [1-chloro-2,4-dinitrobenzene]
- restoring of FR after diamide (HeLa cells [3]; GSH-depleted HeLa cells): abrogated

Compound: O[C@@H](CS)[C@@H](O)CS [DTT]
- change of FR (HeLa cells [3]): rapidly increased

Compound: antimycin A
- change of mitochondrial FR (HeLa cells [4]): concentration-dependent decrease

Compound: Cc1ccc(NC(=O)c2ccc(CN3CCN(C)CC3)cc2)cc1Nc1nccc(-c2cccnc2)n1 [STI571]
- effect on PDGF chemotactic activity of FR^High cells (hES-MSCs [1]; STI571 0.5 μg/mL, 10 ng/mL PDGF-AA): significantly blocked

Compound: CN(C)C(=O)/N=N/C(=O)N(C)C [diamide]
- change of FR (HeLa cells [3]): gradually decreased
- change of mitochondrial FR (HeLa cells [4]): decreased

Compound: CCN1C(=O)C=CC1=O [NEM]
- change of FR (HeLa cells [3]): gradually decreased

Compound: CCOC(=O)CNC(=O)[C@H](CS)NC(=O)CC[C@H](N)C(=O)O [GSH-EE, glutathione ethyl ester]
- effect on chemoattraction to PDGF (hES-MSCs [1]): activation
- effect on declined cellular functions (hES-MSCs [2]; FR^Low hES-MSCs): reversed
